Test results published in PubChem BioAssay (NCI).
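Each compound was tested at five concentrations against cells in 96-well plates for 48 hours. TGI denotes the concentration required for complete inhibition of growth.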

Experiments:
Assay in all cases: inhibition of tumour cell growth, NCI panel, 48 h
[1] = test system: OVCAR-8 ovarian
[2] = test system: U251 CNS
[3] = test system: A498 renal
[4] = test system: COLO 205 colon
[5] = test system: KM12 colon
[6] = test system: K-562 leukemia
[7] = test system: EKVX NSCLC
[8] = test system: SK-MEL-5 melanoma
[9] = test system: BT-549 breast
[10] = test system: SNB-75 CNS

Row | SMILES | TGI [1] [µM] | TGI [2] [µM] | TGI [3] [µM] | TGI [4] [µM] | TGI [5] [µM] | TGI [6] [µM] | TGI [7] [µM] | TGI [8] [µM] | TGI [9] [µM] | TGI [10] [µM]
1 | COC(=O)CCCc1ccc2c(c1)CC1(C2)Cc2cc3c(cc2C1)CCCC3 | > 100 | > 100 | > 100 | 53 | 80.6 | 52.5 | > 100 | 41.2 |  | 
2 | Cc1ccc(C)n2c1nc1ccc3ccccc3c12 | > 100 | > 100 |  | > 100 | > 100 | > 100 | > 100 | > 100 | > 100 | 86
3 | COc1cc(OC)c2c(O)cc(CC(C)O)cc2c1 (centres undefined) | > 100 | > 100 | > 100 | > 100 | > 100 | > 100 | > 100 | > 100 |  | > 100
4 | COc1ccc2[nH]c3c(c2c1)CCN(C)CC3 | > 100 | > 100 | > 100 | > 100 | > 100 | > 100 | > 100 | > 100 |  | > 100
5 | CC1OC(OCC2OC(Oc3c(-c4ccc(O)cc4)oc4cc(O)cc(O)c4c3=O)C(OC3OCC(O)(CO)C3O)C(O)C2O)C(O)C(O)C1O (centres undefined) | > 100 | > 100 | > 100 | > 100 | > 100 | 74.9 | > 100 | > 100 |  | > 100
6 | CN(C)c1ccc(/C=N/Nc2nc3ccccc3c(=O)n2-c2ccccc2)cc1 | > 100 | > 100 | > 100 | > 100 | > 100 | > 100 |  | > 100 |  | 57.5
7 | C=CCC(C)C12CCNC(Cc3ccc(O)cc31)C2C (centres undefined) | > 100 | > 100 | > 100 | > 100 | > 100 | > 100 | > 100 | > 100 |  | > 100
8 | Cc1ccc([N+](=O)[O-])cc1S(=O)(=O)Nc1ccc(C2=NN(c3ccc([N+](=O)[O-])cc3[N+](=O)[O-])C(c3ccccc3)C2)cc1 (centres undefined) | 40.2 | 25.3 |  | 37.4 | 44.8 | > 100 | 34.6 | 25.1 | 33 | 52.4
9 | COC(=O)C12Oc3ccc(-c4ccc5c(c4O)C(=O)C4=CCC(C)C(O)C4(C(=O)OC)O5)c(O)c3C(=O)C1=CCC(C)C2O (centres undefined) | 7.33 | 3.06 | 3.54 | 2.75 | 3.26 | > 30.6 | 4.97 | 3.13 |  | 20.5
10 | COc1ccc(N[C@H](CS(=O)c2ccc(C)cc2)c2ccc(F)cc2)cc1 (some centres undefined) | > 100 | > 100 |  | > 100 | > 100 | > 100 | > 100 | > 100 | > 100 | 81.7
11 | CC(=O)C1CC(C)=CCC12C(=O)Nc1ccccc12 (centres undefined) | > 100 | > 100 | > 100 | > 100 | > 100 | > 100 | > 100 | > 100 |  | > 100
12 | Cc1ccc(C(=O)N(C2CCCCC2)C2CCCCC2)cc1N=NN(C)C | 27.5 | 34.1 |  | 33.6 | 18.7 | 47.6 | 32.3 | 28.1 | 26.8 | 
13 | CC(=O)C(C(C)=O)=C1CCCC(O)O1 (centres undefined) | > 100 | > 100 | > 100 | > 100 | > 100 | > 100 | > 100 | > 100 |  | > 100
14 | O=c1c2ccccc2[nH]c(=S)n1-c1ccc(Br)cc1 | > 100 | > 100 | > 100 | > 100 | > 100 | > 100 | > 100 |  |  | > 100
15 | CCc1cccc(C(C)C)c1NC(=O)C(=O)C(Cc1nc2ccccc2[nH]c1=O)C(=O)OC (centres undefined) | > 100 | > 100 | > 100 | > 100 | > 100 | > 100 | > 100 | > 100 |  | > 100
16 | Cc1cn(C2CC(n3cc(Cn4cc(F)c(=O)[nH]c4=O)nn3)C(CO)O2)c(=O)[nH]c1=O (centres undefined) | > 100 | > 100 | > 100 | > 100 | > 100 |  | > 100 | > 100 | > 100 | > 100
17 | CCOC/N=C(/N)NC#N | > 100 | > 100 | > 100 | > 100 | > 100 | > 100 | > 100 | > 100 |  | > 100
